Data published in patent publication EP4745135A1 (Gluetacs Therapeutics (Shanghai) Co., Ltd., priority 2023, dated 2025).

Biological target: T1, human Cereblon WT GST-tagged protein (Homo sapiens, UniProt Q96SW2)
T1 construct: purchased CISBIO 64BDCRBNPEH
Assay: CRBN-binding affinity, HTRF (CEREBLON BINDING kit)
Details: for inhibition at 0.5 µM: read-out: Inhibition Rate at 0.5 µM (%); for inhibition at 2 µM: read-out: Inhibition Rate at 2 µM (%); for IC50: CRBN binding, HTRF, 3 hours at room temperature, read-out: HTRF IC50
Description: The CEREBLON BINDING kits (specification: 10,000 tests; product number: Catalog # 64BDCRBNPEH; CISBIO company) was used to determine the CRBN binding ability of the compounds to be tested through a HTRF method (homogeneous time-resolved fluorescence). The specific methods are as follows: • 1. […] Specifically, diluent #9 (1X) solution was used as the diluent, and multiple concentration gradients were set. […] Then, 2.5 µL of human Cereblon WT GST-tagged protein solution was added to each well. Finally, 5 µL of the thoroughly mixed Thalidomide-Re reagent and GST Eu antibody working solution were added to each of the aforementioned wells. […] The blank control wells were sequentially added with 2.5 µL of diluent #9 (1X) solution, 2.5 µL of PROTAC binding buffer, and 5 µL of thoroughly mixed Thalidomide-Re reagent and GST Eu antibody working solution. • 4.

T1 sequence (Q96SW2 whole entry): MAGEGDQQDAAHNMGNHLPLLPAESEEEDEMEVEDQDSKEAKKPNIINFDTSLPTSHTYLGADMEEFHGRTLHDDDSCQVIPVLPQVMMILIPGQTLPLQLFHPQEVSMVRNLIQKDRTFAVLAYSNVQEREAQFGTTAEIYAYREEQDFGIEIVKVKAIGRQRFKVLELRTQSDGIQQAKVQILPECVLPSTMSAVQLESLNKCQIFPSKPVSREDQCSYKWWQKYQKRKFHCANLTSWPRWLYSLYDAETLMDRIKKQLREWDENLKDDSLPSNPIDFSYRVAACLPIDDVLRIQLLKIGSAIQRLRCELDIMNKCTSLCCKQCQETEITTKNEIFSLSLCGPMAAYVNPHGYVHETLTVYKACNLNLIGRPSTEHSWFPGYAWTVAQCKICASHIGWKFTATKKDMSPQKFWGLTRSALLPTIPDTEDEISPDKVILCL

Which inhibition at 0.5 µM does the source give for `O=C1CCC(N2Cc3c(CN4CCN(c5nc(N6CCNCC6)c6sccc6n5)CC4)cccc3C2=S)C(=O)N1` (centres unmarked) [GT-09036, 3-(4-((4-(4-(piperazin-1-yl)thieno[3,2-d]pyrimidin-2-yl)piperazin-1-yl)methyl)-1-thioxoisoindolin-2-yl)piperidine-2,6-dione] here?
The inhibition at 0.5 µM was 60 to 80%.

And the inhibition at 2 µM?
The inhibition at 2 µM was 80 to 100%.

Which results are given for `O=C1CCC(N2Cc3cc(CN4CCN(c5ncnc6sc(Br)cc56)CC4)ccc3C2=S)C(=O)N1` (centres unmarked) [GT-09295, 3-(5-((4-(6-bromothieno[2,3-d]pyrimidin-4-yl)piperazin-1-yl)methyl)-1-thioxoisoindolin-2-yl)piperidine-2,6-dione]?
inhibition at 0.5 µM: 80 to 100%; inhibition at 2 µM: 80 to 100%

For `O=C1CCC(N2Cc3c(CN4CCN(c5nc6c(c(N7CCOCC7)n5)SCC6)CC4)cccc3C2=S)C(=O)N1` (centres unmarked) [GT-08969, 3-(4-((4-(4-morpholino-6,7-dihydrothieno[3,2-d]pyrimidin-2-yl)piperazin-1-yl)methyl)-1-thioxoisoindolin-2-yl)piperidine-2,6-dione], which inhibition at 0.5 µM is on record?
Its inhibition at 0.5 µM is 60 to 80%.

And the inhibition at 2 µM?
The inhibition at 2 µM was 80 to 100%.

How did the inhibition at 0.5 µM turn out when `O=C1CCC(N2Cc3c(CN4CCN(C(c5ccccc5)c5ccccn5)CC4)cccc3C2=S)C(=O)N1` (centres unmarked) [GT-08192, 3-(4-((4-(phenyl(pyridin-2-yl)methyl)piperazin-1-yl)methyl)-1-thioxoisoindolin-2-yl)piperidine-2,6-dione] was run?
The inhibition at 0.5 µM was 60 to 80%.

And the inhibition at 2 µM?
Its inhibition at 2 µM is 80 to 100%.

With `O=C1CCC(N2Cc3c(CN4CCN(Cc5ccccc5-c5ccc(Cl)cc5)CC4)cccc3C2=S)C(=O)N1` (centres unmarked) [GT-08295, 3-(4-((4-((4'-chloro-[1,1'-biphenyl]-2-yl)methyl)piperazin-1-yl)methyl)-1-thioxoisoindolin-2-yl)piperidine-2,6-dione] as the compound, how does the inhibition at 0.5 µM read?
Its inhibition at 0.5 µM is 30 to 40%.

And the inhibition at 2 µM?
Its inhibition at 2 µM is 60 to 80%.

With `O=C1CCC(N2Cc3c(CN4CCN(C(c5ccccn5)c5ccccn5)CC4)cccc3C2=S)C(=O)N1` (centres unmarked) [GT-08201, 3-(4-((4-(di(pyridin-2-yl)methyl)piperazin-1-yl)methyl)-1-thioxoisoindolin-2-yl)piperidine-2,6-dione] as the compound, how does the inhibition at 0.5 µM read?
The inhibition at 0.5 µM was 40 to 53%.

And the inhibition at 2 µM?
The inhibition at 2 µM was 80 to 100%.

With `O=C1CCC(N2Cc3c(CN4CCN(c5ncccc5C(F)(F)F)CC4)cccc3C2=S)C(=O)N1` (centres unmarked) [GT-08700, 3-(1-thioxo-4-((4-(3-(trifluoromethyl)pyridin-2-yl)piperazin-1-yl)methyl)isoindolin-2-yl)piperidine-2,6-dione] as the compound, how does the inhibition at 0.5 µM read?
The inhibition at 0.5 µM was 53 to 60%.

What about the inhibition at 2 µM of the same compound?
Its inhibition at 2 µM is 80 to 100%.

What does the source list for `O=C1CCC(N2Cc3cc(CN4CCN(c5ccnc(Cl)c5Cl)CC4)ccc3C2=S)C(=O)N1` (centres unmarked) [GT-09354, 3-(5-((4-(2,3-dichloropyridin-4-yl)piperazin-1-yl)methyl)-1-thioxoisoindolin-2-yl)piperidine-2,6-dione]?
inhibition at 0.5 µM: 60 to 80%; inhibition at 2 µM: 80 to 100%

For `O=C1CCC(N2Cc3c(CO)cccc3C2=S)C(=O)N1` (centres unmarked) [GT-06981, 3-(4-(hydroxymethyl)-1-thioxoisoindolin-2-yl)piperidine-2,6-dione], which IC50 is on record?
Its IC50 is under 100 nM.

What does the source list for `O=C1CCC(N2Cc3cc(CN4CCN(c5ccncc5F)CC4)ccc3C2=S)C(=O)N1` (centres unmarked) [GT-09237, 3-(5-((4-(3-fluoropyridin-4-yl)piperazin-1-yl)methyl)-1-thioxoisoindolin-2-yl)piperidine-2,6-dione]?
inhibition at 0.5 µM: 60 to 80%; inhibition at 2 µM: 80 to 100%

Which inhibition at 0.5 µM does the source give for `O=C1CCC(N2Cc3c(CN4CCN(c5cccc(Br)c5)CC4)cccc3C2=S)C(=O)N1` (centres unmarked) [GT-08261, 3-(4-((4-(3-bromophenyl)piperazin-1-yl)methyl)-1-thioxoisoindolin-2-yl)piperidine-2,6-dione] here?
The inhibition at 0.5 µM was 30 to 40%.

And the inhibition at 2 µM?
The inhibition at 2 µM was 60 to 80%.

What does the source list for `O=C1CCC(N2Cc3cc(CN4CCN(c5cnccn5)CC4)ccc3C2=S)C(=O)N1` (centres unmarked) [GT-09253, 3-(5-((4-(pyrazin-2-yl)piperazin-1-yl)methyl)-1-thioxoisoindolin-2-yl)piperidine-2,6-dione]?
inhibition at 0.5 µM: 60 to 80%; inhibition at 2 µM: 80 to 100%

`O=C1CCC(N2Cc3cc(CN4CCN(c5noc6ccncc56)CC4)ccc3C2=S)C(=O)N1` (centres unmarked) [GT-09258, 3-(5-((4-(isoxazolo[4,5-c]pyridin-3-yl)piperazin-1-yl)methyl)-1-thioxoisoindolin-2-yl)piperidine-2,6-dione] was tested. Which inhibition at 0.5 µM did it give?
The inhibition at 0.5 µM was 60 to 80%.

What about the inhibition at 2 µM of the same compound?
The inhibition at 2 µM was 80 to 100%.

How did the inhibition at 0.5 µM turn out when `O=C1CCC(N2Cc3cc(CN4CCC(N5C(=O)COc6cc(F)ccc65)CC4)ccc3C2=S)C(=O)N1` (centres unmarked) [GT-09273, 3-(5-((4-(7-fluoro-3-oxo-2,3-dihydro-4H-benzo[b][1,4]oxazin-4-yl)piperidin-1-yl)methyl)-1-thioxoisoindolin-2-yl)piperidine-2,6-dione] was run?
Its inhibition at 0.5 µM is 60 to 80%.

And the inhibition at 2 µM?
The inhibition at 2 µM was 80 to 100%.

`O=C1CCC(N2Cc3c(CN4CCN(c5cccs5)CC4)cccc3C2=S)C(=O)N1` (centres unmarked) [GT-08297, 3-(4-((4-(thiophen-2-yl)piperazin-1-yl)methyl)-1-thioxoisoindolin-2-yl)piperidine-2,6-dione] was tested. Which inhibition at 0.5 µM did it give?
The inhibition at 0.5 µM was 60 to 80%.

And the inhibition at 2 µM?
The inhibition at 2 µM was 80 to 100%.

Which inhibition at 0.5 µM does the source give for `O=C1CCC(N2Cc3cc(CN4CCN(c5ccc(C(F)(F)F)cc5)CC4)ccc3C2=S)C(=O)N1` (centres unmarked) [GT-08239, 3-(1-thioxo-5-((4-(4-(trifluoromethyl)phenyl)piperazin-1-yl)methyl)isoindolin-2-yl)piperidine-2,6-dione] here?
The inhibition at 0.5 µM was 40 to 53%.

What about the inhibition at 2 µM of the same compound?
Its inhibition at 2 µM is 80 to 100%.

Which inhibition at 0.5 µM does the source give for `Cc1cc2c(N3CCN(Cc4ccc5c(c4)CN(C4CCC(=O)NC4=O)C5=S)CC3)ncnc2s1` (centres unmarked) [GT-09282, 3-(5-((4-(6-methylthieno[2,3-d]pyrimidin-4-yl)piperazin-1-yl)methyl)-1-thioxoisoindolin-2-yl)piperidine-2,6-dione] here?
Its inhibition at 0.5 µM is 60 to 80%.

And the inhibition at 2 µM?
Its inhibition at 2 µM is 80 to 100%.

Which results are given for `O=C1CCC(N2Cc3c(CN4CCC(Nc5ccccc5-c5ccc(Cl)cc5)CC4)cccc3C2=S)C(=O)N1` (centres unmarked) [GT-09034, 3-(4-((4-((4'-chloro-[1,1'-biphenyl]-2-yl)amino)piperidin-1-yl)methyl)-1-thioxoisoindolin-2-yl)piperidine-2,6-dione]?
inhibition at 0.5 µM: 40 to 53%; inhibition at 2 µM: 60 to 80%

Which inhibition at 0.5 µM does the source give for `O=C1CCC(N2Cc3cc(CN4CCN(C(=O)C5=C(c6ccc(F)cc6)CCCC5)CC4)ccc3C2=S)C(=O)N1` (centres unmarked) [GT-08165, 3-(5-((4-(4'-fluoro-3,4,5,6-tetrahydro-[1,1'-biphenyl]-2-carbonyl)piperazin-1-yl)methyl)-1-thioxoisoindolin-2-yl)piperidine-2,6-dione] here?
Its inhibition at 0.5 µM is 60 to 80%.

And the inhibition at 2 µM?
The inhibition at 2 µM was 80 to 100%.

Which inhibition at 0.5 µM does the source give for `Cc1nc(N2CCN(Cc3cccc4c3CN(C3CCC(=O)NC3=O)C4=S)CC2)c2c(-c3ccccc3)csc2n1` (centres unmarked) [GT-08921, 3-(4-((4-(2-methyl-5-phenylthieno[2,3-d]pyrimidin-4-yl)piperazin-1-yl)methyl)-1-thioxoisoindolin-2-yl)piperidine-2,6-dione] here?
The inhibition at 0.5 µM was 30 to 40%.

And the inhibition at 2 µM?
Its inhibition at 2 µM is 80 to 100%.

How did the inhibition at 0.5 µM turn out when `O=C1CCC(N2Cc3c(CN4CC=C(c5cccs5)CC4)cccc3C2=S)C(=O)N1` (centres unmarked) [GT-08299, 3-(4-((4-(thiophen-2-yl)-3,6-dihydropyridin-1 (2H)-yl)methyl)-1-thioxoisoindolin-2-yl)piperidine-2,6-dione] was run?
Its inhibition at 0.5 µM is 53 to 60%.

What about the inhibition at 2 µM of the same compound?
Its inhibition at 2 µM is 60 to 80%.

What does the source list for `O=C1CCC(N2Cc3cc(CN4CCC(c5ncnc6sccc56)CC4)ccc3C2=S)C(=O)N1` (centres unmarked) [GT-09304, 3-(5-((4-(thieno[2,3-d]pyrimidin-4-yl)piperidin-1-yl)methyl)-1-thioxoisoindolin-2-yl)piperidine-2,6-dione]?
inhibition at 0.5 µM: 60 to 80%; inhibition at 2 µM: 80 to 100%

Which results are given for `O=C1CCC(N2Cc3c(CN4CC5CCC4CN5C(c4ccccc4)c4ccccc4)cccc3C2=S)C(=O)N1` (centres unmarked) [GT-08233, 3-(4-((5-benzhydryl-2,5-diazabicyclo[2.2.2]octan-2-yl)methyl)-1-thioxoisoindolin-2-yl)piperidine-2,6-dione]?
inhibition at 0.5 µM: 53 to 60%; inhibition at 2 µM: 80 to 100%

For `O=C1CCC(N2Cc3cc(CN4CC(c5ccnc6cc(F)ccc56)C4)ccc3C2=S)C(=O)N1` (centres unmarked) [GT-09279, 3-(5-((3-(7-fluoroquinolin-4-yl)azetidin-1-yl)methyl)-1-thioxoisoindolin-2-yl)piperidine-2,6-dione], which inhibition at 0.5 µM is on record?
Its inhibition at 0.5 µM is 60 to 80%.

And the inhibition at 2 µM?
The inhibition at 2 µM was 80 to 100%.

Which results are given for `O=C1CCC(N2Cc3cc(CN4CCC(c5ccon5)CC4)ccc3C2=S)C(=O)N1` (centres unmarked) [GT-09256, 3-(5-((4-(isoxazol-3-yl)piperidin-1-yl)methyl)-1-thioxoisoindolin-2-yl)piperidine-2,6-dione]?
inhibition at 0.5 µM: 60 to 80%; inhibition at 2 µM: 80 to 100%

What does the source list for `O=C1CCC(N2Cc3cc(CN4CCN(c5ccc(Cl)nn5)CC4)ccc3C2=S)C(=O)N1` (centres unmarked) [GT-09251, 3-(5-((4-(6-chloropyridazin-3-yl)piperazin-1-yl)methyl)-1-thioxoisoindolin-2-yl)piperidine-2,6-dione]?
inhibition at 0.5 µM: 60 to 80%; inhibition at 2 µM: 80 to 100%

For `O=C1CCC(N2Cc3cc(CN4CCC(c5ncnc6sc(-c7ccccc7)cc56)CC4)ccc3C2=S)C(=O)N1` (centres unmarked) [GT-09306, 3-(5-((4-(6-phenylthieno[2,3-d]pyrimidin-4-yl)piperidin-1-yl)methyl)-1-thioxoisoindolin-2-yl)piperidine-2,6-dione], which inhibition at 0.5 µM is on record?
The inhibition at 0.5 µM was 40 to 53%.

What about the inhibition at 2 µM of the same compound?
The inhibition at 2 µM was 80 to 100%.

Which IC50 does the source give for `O=C1CCC(N2Cc3cc(CN4CCn5c(nnc5C(F)(F)F)C4)ccc3C2=S)C(=O)N1` (centres unmarked) [GT-05090, 3-(1-thioxo-5-((3-(trifluoromethyl)-5,6-dihydro-[1,2,4]triazolo[4,3-a]pyrazin-7(8H)-yl)methyl)isoindolin-2-yl)piperidine-2,6-dione] here?
The IC50 was 100 to 500 nM.

Which inhibition at 0.5 µM does the source give for `O=C1CCC(N2Cc3cc(CN4CCN(c5cccnn5)CC4)ccc3C2=S)C(=O)N1` (centres unmarked) [GT-09265, 3-(5-((4-(pyridazin-3-yl)piperazin-1-yl)methyl)-1-thioxoisoindolin-2-yl)piperidine-2,6-dione] here?
The inhibition at 0.5 µM was 60 to 80%.

And the inhibition at 2 µM?
Its inhibition at 2 µM is 80 to 100%.
